From ChEMBL document CHEMBL4130388, “Recent advances of pyrazole-containing derivatives as anti-tubercular agents” (Eur J Med Chem, 2017)

Molecular target: T1, Enoyl-[acyl-carrier-protein] reductase [NADH] (Mycobacterium tuberculosis, UniProt P9WGR1)
T1 sequence (P9WGR1 whole entry): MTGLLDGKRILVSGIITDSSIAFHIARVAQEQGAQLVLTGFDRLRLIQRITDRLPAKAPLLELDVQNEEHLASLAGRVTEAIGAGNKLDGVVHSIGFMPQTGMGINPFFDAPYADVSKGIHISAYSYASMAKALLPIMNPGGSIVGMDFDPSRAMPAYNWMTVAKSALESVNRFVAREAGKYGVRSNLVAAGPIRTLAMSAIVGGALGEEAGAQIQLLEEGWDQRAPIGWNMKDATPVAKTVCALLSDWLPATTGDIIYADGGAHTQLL
Test: Inhibition of Mycobacterium tuberculosis InhA using DDCoA as substrate in presence of NADH by fluorimetric method

Compound `Cc1cc(C)n(Cc2ccc(C(=O)NCc3ccc(F)cc3Cl)cc2)n1` has an IC50 of 40 nM.
